According to patent publication US10632324B2, “Method for the treatment of skin tissues” (9127-4910 Quebec Inc., priority 2017, dated 2020):
Values joined by “and” are separate entries in the source; they are usually repeats but may differ in a detail not shown here. Equal entries are not always repeated.

Legend:
[1] = system: diffuse sebaceous gland hyperplasia; assay: Split-face radiant IR skin preparation prior to PDT, diffuse sebaceous gland hyperplasia (Example 4); assay type: in vivo, human
Procedure: A PDT treatment was performed on the face of a patient suffering from diffuse sebaceous gland hyperplasia. They were complaining of redness exacerbated by exercise/effort. […] Facial lesions were distributed mainly on the forehead and cheeks. […] They applied only topical Metrogel. […] Also, comedones and papulo-pustules were present. The patient was skin phototype II (Fitzpatrick classification). Their parent had similar skin condition.
Prior to PDT, radiant IR skin preparation was performed in only half of face (split face study). Then PDT was completed on the complete facial area. First, the face was washed with a mild soap and an acetone scrub was performed. A 970 nm LED source prototype emitting at 50 mW/cm2 in a CW mode was placed at 1.5 cm from the right side of face and left for 25 min. Right after split face irradiation, 5-aminolevilinic acid (Levulan™ Kerastick™) was applied to the treatment area and left for 90 min. The photosensitizer was then light activated by a 630 nm LED source emitting at 50 mW/cm^2 (LumiPhase-RB, Opusmed, Canada), until erythema was reached (20 min). This treatment was concluded by a 405 nm LED source emitting at 30 mW/cm^2 (LumiPhase-RB, Opusmed, Canada), for 5 min. […] Through a mechanism involving the opening of skin pores, IR radiant skin preparation enhanced drug penetration and absorption by the targeted structures (i.e. sebaceous glands).

[2] = system: conversion of 5-ALA to protoporphyrin IX (PpIX); assay: Fluoderm fluorescence after 940 nm photopreparation and 5-ALA, one subject (Example 11); assay type: in vivo, human
Procedure: In order to measure the effect of photopreparation on the skin we used an LED device (Lumiphase 940 nm, CW and Pulsed, irradiance: 70 mW/cm2, OpusMed, Montreal, Canada) prior to the application of a photosensitizer (5-ALA: Levulan, Kerastick, DUSA Pharmaceuticals, USA). We tested both CW and sequential pulsing modes 24 h and 30/15 minutes (total fluence 63 J/cm^2 before the application of 5-ALA for 3 hours). Following an incubation time of 3 hours, we measured the fluorescence induced by the conversion of 5-ALA to protoporphyrin IX (PpIX) with a dedicated device (Fluoderm, Dia-Medico ApS, Danemark). The pulsed radiation, referred to as D50 hereinbelow, consisted in pulse trains of 4 pulses with pulses lasting 500 μs separated with an inter-pulse interval within each train of 150 μs. The pulse trains were separated from each other by 1550 μs. Higher numbers mean higher conversion to PpIX, and thus indicate that the PDT treatment will be more efficient. All parameters were tested on adjacent portion of the subject's skin. The experiment was performed on the back of a person with phototype I.

[3] = system: conversion of 5-ALA to PpIX; assay: FluoDerm fluorescence after 940 nm irradiation 8-53 h before 5-ALA, two subjects (Example 11); assay type: in vivo, human; parameters: unit not given here
Procedure: In view of these promising results, another study with even longer delays before application of 5-ALA was performed. The back skin of two test subjects was irradiated with continuous wavelength and pulsed infrared light at 940 nm. These irradiations took place 50-53, 24-29, and 8-14 hours prior to the application of the 5-ALA. After a three-hour incubation period with the compound, a FluoDerm™ device was used to measure the fluorescence of the skin ([…]) a direct indication of the activity of 5-ALA. 5-ALA must penetrate the skin and then be converted to PpIX before any fluorescence increase can be observed. […] Conclusion: This preconditioning method uses a temperature-independent mechanism of action via cell signaling pathways as in photobiomodulation.

[4] = system: actinic keratosis lesions; assay: Split-face radiant IR skin preparation prior to PDT, actinic keratosis of face and scalp (Example 5); details: single PDT treatment

NCC(=O)CCC(=O)O [5-ALA, 5-aminolevulinic acid]
time clearing was maintained post-treatment ([1]; especially on the radiant IR pre-treated side): up to 6 months
improvement of SH lesions ([1]; other side, no IR preparation, PDT alone, single treatment): 30%
Fold increase of fluorescence compared to 5-ALA alone ([2]; PP 15 min pre-5-ALA: CW - 15 min): 1.09 fold and 1.03 fold
Fluoderm Measurements, Post 3 hour incubation (5-ALA) ([2]; PP 15 min pre-5-ALA: CW - 15 min, 940 nm, 70 mW/cm2): 51
Fold increase of fluorescence compared to 5-ALA alone ([2]; PP 30 min pre-5-ALA: D50 - 30 min): 1.19 fold
Fluoderm Measurements, Post 3 hour incubation (5-ALA) ([2]; PP 30 min pre-5-ALA: D50 - 30 min, 940 nm, 70 mW/cm2): 59
Fold increase of fluorescence compared to 5-ALA alone ([2]; PP 24 h pre-5-ALA: CW - 15 min): 1.13 fold
Fluoderm Measurements, Post 3 hour incubation (5-ALA) ([2]; PP 24 h pre-5-ALA: CW - 15 min, 940 nm, 70 mW/cm2): 56
Fold increase of fluorescence compared to 5-ALA alone ([2]; PP 24 h pre-5-ALA: D50 - 30 min): 1.45 fold
Fluoderm Measurements, Post 3 hour incubation (5-ALA) ([2]; PP 24 h pre-5-ALA: D50 - 30 min, 940 nm, 70 mW/cm2): 72
Fold increase of fluorescence compared to 5-ALA alone ([2]; Positive control: 5-ALA alone): 1 fold
Fluoderm Measurements, Post 3 hour incubation (5-ALA) ([2]; Positive control: 5-ALA alone, no photopreparation): 49.5
Fluoderm Reading ([3]; subject one, 14 hour time points, CW-940, 3 h incubation): 51.0
Fluoderm Reading ([3]; subject one, 14 hour time points, D50-940, 3 h incubation): 44.5
Fluoderm Reading ([3]; subject one, 24 hour time points, CW-940, 3 h incubation): 48.0
Fluoderm Reading ([3]; subject one, 24 hour time points, D50-940, 3 h incubation): 36.5
Fluoderm Reading ([3]; subject one, 50 hour time points, CW-940, 3 h incubation): 45.0
Fluoderm Reading ([3]; subject one, 50 hour time points, D50-940, 3 h incubation): 35.0
Fluoderm Reading ([3]; subject one, Control, Just 5-ALA, no irradiation): 37.0
Fluoderm Reading ([3]; subject two, 8 hour time points, CW-940, 3 h incubation): 44.0
Fluoderm Reading ([3]; subject two, 8 hour time points, D50-940, 3 h incubation): 49.0
Fluoderm Reading ([3]; subject two, 8 hour time points, S50-940, 3 h incubation): 51.0
Fluoderm Reading ([3]; subject two, 29 hour time points, CW-940, 3 h incubation): 47.0
Fluoderm Reading ([3]; subject two, 29 hour time points, D50-940, 3 h incubation): 52.0
Fluoderm Reading ([3]; subject two, 29 hour time points, S50-940, 3 h incubation): 47.5
Fluoderm Reading ([3]; subject two, 53 hour time points, CW-940, 3 h incubation): 55.0
Fluoderm Reading ([3]; subject two, 53 hour time points, D50-940, 3 h incubation): 46.5
Fluoderm Reading ([3]; subject two, 53 hour time points, S50-940, 3 h incubation): 55.0
Fluoderm Reading ([3]; subject two, Control, Just 5-ALA, no irradiation): 46.0
lesion clearance ([4]; left side, no IR pre-treatment): 40%
lesion clearance ([4]; right side, IR pre-treated (970 nm, 40 mW/cm2, 30 min), 90 min incubation): 60%
